Values quoted from earlier work as cited in patent US7553863B2, “Ultrapure 4-methylpyrazole” (Paladin Labs (Barbados) Inc., priority 2005, dated 2009).

Key:
[1] = H. Kohno et al., Cancer Sci. 2005
[2] = Eisses, 1995
alcohol dehydrogenase = conditions: relative to 4-methylpyrazole; T. Li et al., Acta Chem. Scan. 1969
[3] = system: brain levels of noradrenaline; conditions: in contrast to 4-methylpyrazole; E. MacDonald, Acta Pharmacol. et Toxicol. 1976

| fold less potency against alcohol dehydrogenase (alcohol dehydrogenase) | Structure (SMILES) | mutagenicity and carcinogenicity [1] | teratogenicity [2] | effect on brain levels of noradrenaline [3] |
| --- | --- | --- | --- | --- |
| – | NN [Hydrazine] | known mutagens and carcinogens | – | – |
| 10 fold | c1cn[nH]c1 [Pyrazole] | – | known teratogen | detrimental effect |
